Experimental findings from patent publication US20130252930A1 (BIOMARIN PHARMACEUTICAL INC., priority 2010, published 2013) are described below.

The structures appear in SMILES notation. Where two headings read alike, the source gives them in different places. Bounds are passed on as bounds.

Holding throughout (format): biochemical
In test [1] the target is T1, CYP17 (human testicular microsome) (Homo sapiens, UniProt P05093).
T1 construct: using microsomal fraction from human testis (Celsis Cat #S00110) as the enzyme source; tissue Celsis S00110; host or cells: human testis microsomal fraction
T1 sequence (P05093 1-508): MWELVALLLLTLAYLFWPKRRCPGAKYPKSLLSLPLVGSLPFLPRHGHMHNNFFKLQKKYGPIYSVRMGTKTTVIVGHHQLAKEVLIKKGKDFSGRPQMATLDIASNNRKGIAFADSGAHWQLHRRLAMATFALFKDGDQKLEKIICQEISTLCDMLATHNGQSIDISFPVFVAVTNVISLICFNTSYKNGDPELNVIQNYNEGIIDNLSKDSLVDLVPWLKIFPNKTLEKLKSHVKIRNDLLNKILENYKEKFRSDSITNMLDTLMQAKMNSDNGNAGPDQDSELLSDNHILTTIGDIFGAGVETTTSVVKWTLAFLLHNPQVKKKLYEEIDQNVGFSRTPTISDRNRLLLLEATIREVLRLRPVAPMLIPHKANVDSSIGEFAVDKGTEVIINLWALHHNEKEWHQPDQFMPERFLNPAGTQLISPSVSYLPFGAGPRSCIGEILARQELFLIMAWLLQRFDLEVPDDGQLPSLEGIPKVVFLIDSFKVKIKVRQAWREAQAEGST
As to the kind of experiment: CYP17 enzymatic assay (% inhibition at 10 nM), version 1 (Biological Example 5). The settings on record: 10 nM compound, DHEA by ELISA, read-out: Biological Example No. 5: CYP17 percent inhibition at 10 nM (version 1). A general note: An ELISA detects its analyte on a solid surface through an enzyme-linked reagent.

The target of test [2] is T1, CYP17 (human testicular microsome). As to the kind of experiment: CYP17 enzymatic assay (IC50) (Biological Example 4). The settings on record: human testicular microsome.
Test [3] shares this target. The test can be described thus: CYP17 enzymatic assay (% inhibition at 1 nM) (Biological Example 12). The settings on record: compound at 1 nM.
Method: The assays were performed in 96-well plates. Typical assays were carried out in total 100 μL volume that included test compounds at 1 nM concentration, 1× reaction buffer, 0.5 mM NADPH, 1 μM 17α-hydroxypregnenolone, and 2.5 μL of human testicular microsome (Celsis. Cat #S00110). Reaction without test compound served as a positive control. Reactions were allowed to incubate at 37° C. for 90 min with gentle shaking. The reaction was stopped by directly applying the enzymatic reaction mixture to ELISA plate for evaluation of DHEA concentration according to manufacturer's protocol (IBL America). A standard curve (OD450 vs. DHEA concentration) was generated using purified DHEA. […] Percent inhibition (inhibition %) of the compound was calculated using normalized DHEA concentration based on following formula: 100−([DHEA] of compound/[DHEA] of positive control*100).

As a reminder, the inhibition is the share of the control response that was lost under treatment. As for `Cc1cncc(C2=CC[C@H]3[C@@H]4CCN5CCCCC[C@]5(C)[C@H]4CC[C@]23C)c1` [Compound 45, (11aR,13aS)-11a,13a-dimethyl-1-(5-methylpyridin-3-yl)-3a,3b,4,5,7,8,9,10,11,11a,11b,12,13,13a-tetradecahydro-3H-azepino[2,1-a]cyclopenta[f]isoquinoline], the inhibition at 0.01 µM in test [1] is 1 to 50%.

For the compound `COc1cncc(C2=CC[C@H]3[C@@H]4CCN5CCCCC[C@]5(C)[C@H]4CC[C@]23C)c1` [Compound 47, (11aR,13aS)-1-(5-methoxypyridin-3-yl)-11a,13a-dimethyl-3a,3b,4,5,7,8,9,10,11,11a,11b,12,13,13a-tetradecahydro-3H-azepino[2,1-a]cyclopenta[f]isoquinoline], the inhibition at 0.01 µM in test [1] fell in the range of 1 to 50%.

For `CCc1cncc(C2=CC[C@H]3[C@@H]4CC=C5CCCC[C@]5(C)[C@H]4CC[C@]23C)c1` [Compound 64, 3-((10R,13S)-10,13-dimethyl-2,3,4,7,8,9,10,11,12,13,14,15-dodecahydro-1H-cyclopenta[a]phenanthren-17-yl)-5-ethylpyridine], the inhibition at 0.01 µM in test [1] lay in the range of 1 to 50%.

As to `Cc1cncc(C2=CC[C@H]3[C@@H]4CC=C5CCCC[C@]5(C)[C@H]4CC[C@]23C)c1` [Compound 65, 3-((10R,13S)-10,13-dimethyl-2,3,4,7,8,9,10,11,12,13,14,15-dodecahydro-1H-cyclopenta[a]phenanthren-17-yl)-5-methylpyridme], the inhibition at 0.01 µM in test [1] fell in the range of 50 to 80%.

In the case of `COc1cncc(C2=CC[C@H]3[C@@H]4CC=C5CCCC[C@]5(C)[C@H]4CC[C@]23C)c1` [Compound 66, 3-((10R,13S)-10,13-dimethyl-2,3,4,7,8,9,10,11,12,13,14,15-dodecahydro-1H-cyclopenta[a]phenanthren-17-yl)-5-methoxypyridine], in test [1], the inhibition at 0.01 µM is 50 to 80%.

Consider `C[C@]12CCCCC[C@@H]1CC[C@@H]1[C@@H]2CC[C@]2(C)C(c3cccnc3)=CC[C@@H]12` [Compound 90, 3-((3aS,3bR,5aR,10aS,10bS,12aS)-10a,12a-dimethyl-3,3a,3b,4,5,5a,6,7,8,9,10,10a,10b,11,12,12a-hexadecahydrocyclohepta[a]cyclopenta[f]naphthalen-1-yl)pyridine], for which the inhibition at 0.01 µM in test [1] fell in the range of 1 to 50%.

In the case of `Cc1cncc(C2=CC[C@H]3[C@@H]4CC[C@H]5CCCCC[C@]5(C)[C@H]4CC[C@]23C)c1` [Compound 91, 3-((3aS,3bR,5aR,10aS,10bS,12aS)-10a,12a-dimethyl-3,3a,3b,4,5,5a,6,7,8,9,10,10a,10b,11,12,12a-hexadecahydrocyclohepta[a]cyclopenta[f]naphthalen-1-yl)-5-methylpyridine], the inhibition at 0.01 µM in test [1] was 1 to 50%.

As for `COc1cncc(C2=CC[C@H]3[C@@H]4CC[C@H]5CCCCC[C@]5(C)[C@H]4CC[C@]23C)c1` [Compound 92, 3-((3aS,3bR,5aR,10aS,10bS,12aS)-10a,12a-dimethyl-3,3a,3b,4,5,5a,6,7,8,9,10,10a,10b,11,12,12a-hexadecahydrocyclohepta[a]cyclopenta[f]naphthalen-1-yl)-5-methoxypyridine], the inhibition at 0.01 µM in test [1] was 50 to 80%.

As for `CCc1cncc(C2=CC[C@H]3[C@@H]4CC[C@H]5CCCCC[C@]5(C)[C@H]4CC[C@]23C)c1` [Compound 93, 3-((3aS,3bR,5aR,10aS,10bS,12aS)-10a,12a-dimethyl-3,3a,3b,4,5,5a,6,7,8,9,10,10a,10b,11,12,12a-hexadecahydrocyclohepta[a]cyclopenta[f]naphthalen-1-yl)-5-ethylpyridine], the inhibition at 0.01 µM in test [1] was in the range of 1 to 50%.

Turning to `CCOc1cncc(C2=CC[C@H]3[C@@H]4CC[C@H]5CCCCC[C@]5(C)[C@H]4CC[C@]23C)c1` [Compound 94, 3-((3aS,3bR,5aR,10aS,10bS,12aS)-10a,12a-dimethyl-3,3a,3b,4,5,5a,6,7,8,9,10,10a,10b,11,12,12a-hexadecahydrocyclohepta[a]cyclopenta[f]naphthalen-1-yl)-5-ethoxypyridine], the inhibition at 0.01 µM in test [1] was in the range of 1 to 50%.

For the compound `Cc1ccncc1C1=CC[C@H]2[C@@H]3CC[C@H]4CCCCC[C@]4(C)[C@H]3CC[C@]12C` [Compound 95, 3-((3aS,3bR,5aR,10aS,10bS,12aS)-10a,12a-dimethyl-3,3a,3b,4,5,5a,6,7,8,9,10,10a,10b,11,12,12a-hexadecahydrocyclohepta[a]cyclopenta[f]naphthalen-1-yl)-4-methylpyridine], the inhibition at 0.01 µM in test [1] was in the range of 1 to 50%.

In the case of `C[C@]12CCCCC[C@@H]1CC[C@@H]1[C@@H]2CC[C@]2(C)C(c3cnccc3Cl)=CC[C@@H]12` [Compound 96, 4-chloro-3-((3aS,3bR,5aR,10aS,10bS,12aS)-10a,12a-dimethyl-3,3a,3b,4,5,5a,6,7,8,9,10,10a,10b,11,12,12a-hexadecahydrocyclohepta[a]cyclopenta[f]naphthalen-1-yl)pyridine], the inhibition at 0.01 µM in test [1] was 1 to 50%.

Take `CCOc1cncc(C2=CC[C@H]3[C@@H]4CCC5N(C)C(=O)COC[C@]5(C)[C@H]4CC[C@]23C)c1` (stereo partly drawn) [Compound 99, (5aR,5bS,7aS,10aS,10bS)-8-(5-ethoxypyridin-3-yl)-1,5a,7a-trimethyl-5,5a,5b,6,7,7a,10,10a,10b,11,12,12a-dodecahydro-1H-cyclopenta[5,6]naphtho[2,1-e][1,4]oxazepin-2(3H)-one]: in test [1], the inhibition at 0.01 µM is 1 to 50%.

Turning to `C[C@]12CCNC(=O)CC[C@@H]1CC[C@@H]1[C@@H]2CC[C@]2(C)C(c3cccnc3)=CC[C@@H]12` [Compound 101, (6aS,6bS,8aS,11aS,11bR,13a5)-6a,8a-dimethyl-9-(pyridin-3-yl)-4,5,6,6a,6b,7,8,8a,11,11a,11b,12,13,13a-tetradecahydro-1H-cyclopenta[5,6]naphtho[1,2-d]azocin-3(2H)-one], the inhibition at 0.01 µM in test [1] lay within 50 to 80%.

`C[C@]12CC(=O)C[C@@H]1CC[C@@H]1[C@@H]2CC[C@]2(C)C(n3ccnn3)=CC[C@@H]12` [Compound 110, (3aS,5aS)-3a,5a-dimethyl-6-(1H-1,2,3-triazol-1-yl)-3,3a,3b,4,5,5a,8,8a,8b,9,10,10a-dodecahydrodicyclopenta[a,f]naphthalen-2(1H)-one]: in test [1], the inhibition at 0.01 µM fell in the range of 1 to 50%.

Regarding `CCOc1cncc(C2=CC[C@H]3[C@@H]4CC[C@H]5CCOCC[C@]5(C)[C@H]4CC[C@]23C)c1` [Compound 124, 3-((5aS,5bS,7aS,10aS,10bR,12aS)-5a,7a-dimethyl-2,4,5,5a,5b,6,7,7a,10,10a,10b,11,12,12a-tetradecahydro-1H-cyclopenta[5,6]naphtho[1,2-d]oxepin-8-yl)-5-ethoxypyridine], the inhibition at 0.01 µM in test [1] was 50 to 80%.

The IC50 is the concentration at which inhibition is half-maximal. As for `CC1CC2C3CC=C(c4cccnc4)[C@@]3(C)CCC2[C@@]2(C)CC[C@H](O)CC12O` (stereo partly drawn) [Compound 410, (3S,10R,13S)-6,10,13-trimethyl-17-(pyridin-3-yl)-2,3,4,5,6,7,8,9,10,11,12,13,14,15-tetradecahydro-1H-cyclopenta[a]phenanthrene-3,5-diol], in test [2] (read-out: Biological Example No. 4: CYP17 enzymatic assay IC50), the IC50 was below 11 nM. The inhibition at 0.001 µM in test [3] (read-out: Biological Example No. 12: CYP17 enzymatic assay % inhibition at 1 nM) was above 50%.

Regarding `Cc1cncc(C2=CC=C3[C@@H]4CCC5CC(=O)NCC[C@]5(C)[C@H]4CC[C@]23C)c1` (stereo partly drawn) [Compound 460, (5aS,5bS,7aS,10bR)-5a,7a-dimethyl-8-(5-methylpyridin-3-yl)-3,4,5,5a,5b,6,7,7a,10b,11,12,12a-dodecahydrocyclopenta[5,6]naphtho[1,2-d]azepin-2(1H)-one], the IC50 in test [2] (read-out: CYP17 enzymatic assay IC50 (Biological Example No. 4)) was below 11 nM. The inhibition at 0.001 µM in test [3] (read-out: CYP17 enzymatic assay % inhibition at 1 nM (Biological Example No. 12)) was above 50%.
